Patent publication US20040198770A1, “Uses for l-tetrahydropalmatine” (PharmacoGenetics Limited, priority 2003, published 2004)

Experiments:
Format in all cases: in vivo
ICR mice [1] = experiment: Locomotor activity test; conditions: for No. of Transitions: mice, 1 h before test, 300 s
Experimental: (§1) ICR mice of male sex, weighing 15.6-17.8 g were used, provided by Experimental Animal Centre of HKUST, housed in groups, given food and water ad libitum and maintained on a 12 hour light: 12 hour dark cycle. All of the experimental groups had 12 animals per group.
(§2) For each experimental animal, administered orally 0.2 ml (pH 7.2) of respective solvent at concentrations as stated above for each group (or double-distilled water for normal control group) one hour before testing.
An apparatus with a brown light-resistant box having dimensions of 60×60×30 cm was used to perform the test. It consists of four cylindrical plastic boxes of 20 cm diameter, each having 6 equally distributed infrared photocells. The locomotor activity was counted automatically during a 300 second test period. A decrease in the number of transitions reflects a decrease in locomotor activity.
Physical reflections existed for this group and there was no abnormal phenomenon in respiratory circulation.

ICR mice [2] = experiment: Horizontal-wire test; conditions: for No. of falling: Table 1, mice; for No. of falling / Number of falling: 60 s; for Number of falling: Table 2, mice
Experimental: as §1, §2
Mice are lifted by the tail and allowed to grasp a horizontally strung wire (1 mm diameter, 20 cm long and placed 20 cm above the table) with their forepaws and released (Bonetti E. P. et al., Psychopharmacology (Berl). 1982; 78(1): 8-18; PMID: 6292984). For each experimental animal, the number of falling onto the table in 60 seconds was determined.
There is no significant difference between same dosage l-THP and dl-THP groups.

ICR mice [3] = experiment: Elevated plus-maze test; conditions: for Closed arm entry % / Closed arm entry No. / Open arm entry % / Open arm entry No. / Total no. of arm entries: 300 s; for Closed arm Time spent / Closed arm time spent % / Open arm Time spent / Open arm time spent %: 300 s test
Experimental: as §1, §2
The elevated plus-maze is made of 0.5 cm thick wood as a horizontal cross consisting of two open arms (25×5 cm) and two opposite arms (25×5 cm) enclosed by 10 cm high walls. The arms extend from a central platform having dimensions of 5×5 cm. The plus-maze is elevated to a height of 40 cm from the floor. The maze is put inside a box with dimensions of 30×30×50 cm. The mice are placed on the central platform of the maze facing a closed arm. The number of arm entries and the time spent in the open and closed arm are counted for 300 seconds (Pellow S. et al., “Anxiolytic and anxiogenic drug effects on exploratory activity in an elevated plus-maze: a novel test of anxiety in the rat”, Pharmacol Biochem Behav. 1986 March; 24(3): 525-9; PMID: 2871560). Arm entry was defined as one half body entered into the arm.

ICR mice [4] = experiment: Hole-board test; conditions: 300 s
Experimental: as §1, §2
The hole-board apparatus is a 0.5 cm thick walled wood arena of 60×60×30 cm, with four 5 cm equidistant 4 cm diameter holes spaced on the floor. The mice are placed on the centre of the arena and the number of head-dip on the hole and the number of rearing are counted during a 300 second test period (File S. E. et al., “The effects of triazolobenzo-diazepines in two animal tests of anxiety and in the holeboard.”, Br J Pharmacol. 1985 November; 86(3): 729-35; PMID: 2866006). After each trial, the floor of the apparatus was wiped and dried thoroughly with tissue to remove traces of the previous path.

[5] = mice, oral 0.5 mg/kg, 0.5 mg/kg

## COc1cc2c(cc1OC)[C@@H]1Cc3ccc(OC)c(OC)c3CN1CC2 [l-THP, l-tetrahydropalmatine]
ICR mice [1]; 20 mg/kg
  medicinal effect under high dosage: inhibitive effect on CNS and myorelaxation
ICR mice [1]; oral 0.5 mg/kg
  No. of Transitions: 121.1 ± 9.53
ICR mice [1]; oral 1.0 mg/kg
  No. of Transitions: 111.3 ± 11.91
ICR mice [1]; oral 5.0 mg/kg
  No. of Transitions: 104.5 ± 10.73
ICR mice [1]; oral 10 mg/kg
  No. of Transitions: 101.4 ± 15.41
ICR mice [1]; oral 20 mg/kg
  No. of Transitions: 53.0 ± 12.72
ICR mice [1]; oral 40 mg/kg
  No. of Transitions: 13.6 ± 5.27
ICR mice [2]; oral 0.5 mg/kg
  No. of falling: 0.4 ± 0.49
  Number of falling: 0.40 ± 0.48
ICR mice [2]; oral 1.0 mg/kg
  No. of falling: 0.4 ± 0.48
  Number of falling: 0.40 ± 0.48
ICR mice [2]; oral 5.0 mg/kg
  No. of falling: 0.5 ± 0.67
  Number of falling: 0.50 ± 0.67
ICR mice [2]; oral 10 mg/kg
  No. of falling: 1.0 ± 0.77
  Number of falling: 1.00 ± 0.77
ICR mice [2]; oral 20 mg/kg
  No. of falling: 4.5 ± 1.50
ICR mice [2]; oral 40 mg/kg
  No. of falling: 8.5 ± 3.55
ICR mice [2]; oral 30 mg/kg
  Number of falling: 18.50 ± 3.54
ICR mice [2]; mice, oral
  oral dosage at which there is no myorelaxation effect: less than 20 mg/kg
ICR mice [3]; experimental mice
  Optimal dosage for anxiolytic effect: 1 mg/kg
ICR mice [3]; experimental mice, 5 mg/kg
  medicinal effect under medium dosage: sedative and hypnotic effect
ICR mice [3]; experimental mice, 0.1-2.5 mg/kg
  medicinal effect under low dosage: anxiolytic effect
ICR mice [3]; mice, oral
  most medicinal dosage (time spent and percentage of open arm entry): 1 mg/kg
ICR mice [3]; mice, oral 0.05 mg/kg
  Closed arm entry %: 67.89 ± 6.77%
  Closed arm entry No.: 19.33 ± 5.55
  Open arm entry %: 32.11 ± 6.77%
  Open arm entry No.: 8.75 ± 1.36
  Total no. of arm entries: 28.08 ± 5.62
  Closed arm Time spent: 225.42 ± 12.13
  Closed arm time spent %: 80.96 ± 3.55%
  Open arm Time spent: 53.08 ± 10.40
  Open arm time spent %: 19.04 ± 3.55%
ICR mice [3]; mice, oral 0.1 mg/kg
  number of open arm entry of l-THP greater than dl-THP by: 31.7%
  percentage of open arm entry of l-THP greater than dl-THP by: 40.4%
  Closed arm entry %: 57.17 ± 4.26%
  Closed arm entry No.: 15.27 ± 2.41
  Open arm entry %: 42.83 ± 4.26 %
  Total no. of arm entries: 26.82 ± 4.38
  Closed arm Time spent: 217.27 ± 15.11
  Closed arm time spent %: 76.33 ± 5.61%
  Open arm Time spent: 68.18 ± 20.68
  Open arm time spent %: 23.67 ± 5.61%
ICR mice [3]; mice, oral 0.5 mg/kg
  Closed arm entry %: 58.18 ± 6.37%
  Closed arm entry No.: 16.17 ± 1.95
  Total no. of arm entries: 27.92 ± 4.08
  Closed arm Time spent: 205.33 ± 20.02
  Closed arm time spent %: 74.19 ± 7.09%
  Open arm Time spent: 71.75 ± 21.08
ICR mice [3]; [5]
  Open arm time spent %: 25.81 ± 7.09 %
  Open arm entry %: 41.82 ± 6.37 %
ICR mice [3]; mice, oral 1.0 mg/kg
  Closed arm entry %: 55.53 ± 3.10%
  Closed arm entry No.: 14.92 ± 1.93
  Open arm entry %: 44.47 ± 3.10 %
  Total no. of arm entries: 26.92 ± 3.61
  Closed arm Time spent: 204.00 ± 16.42
  Closed arm time spent %: 71.94 ± 6.70%
ICR mice [3]; mice, oral 1.0 mg/kg, 1 mg/kg
  Open arm time spent %: 28.06 ± 6.70 %
ICR mice [3]; mice, oral 2.5 mg/kg
  Closed arm entry %: 59.61 ± 4.06%
  Closed arm entry No.: 15.92 ± 2.15
  Open arm entry %: 40.39 ± 4.09 %
  Open arm entry No.: 10.92 ± 2.50
  Total no. of arm entries: 26.83 ± 4.20
  Closed arm Time spent: 227.83 ± 12.15
  Closed arm time spent %: 78.04 ± 4.70%
  Open arm Time spent: 64.75 ± 16.70
  Open arm time spent %: 21.96 ± 4.70%
ICR mice [3]; mice, oral 5 mg/kg
  number of open arm entry of l-THP less than dl-THP by: 357.4%
  percentage of open arm entry of l-THP less than dl-THP by: 69.5%
ICR mice [3]; mice, oral 5.0 mg/kg
  Closed arm entry %: 70.37 ± 5.03%
  Closed arm entry No.: 7.83 ± 3.43
  Closed arm Time spent: 253.25 ± 24.32
  Closed arm time spent %: 88.54 ± 5.48%
ICR mice [3]; mice, oral 5.0 mg/kg, 5 mg/kg
  Open arm time spent %: 11.46 ± 5.48 %
  Open arm entry %: 29.63 ± 5.03%
ICR mice [3]; mice, oral 0.1-2.5 mg/kg
  increase of percentage of open arm entry compared to the normal control group: 39.31-48.14%
  increase of percentage of time spent in open arm compared to the normal control group: 27.19-50.78%
ICR mice [4]; oral 0.05 mg/kg
  Head-dip No.: 15.83 ± 3.01
  Rearing No.: 26.83 ± 5.51
  Total No. (head-dip and rearing): 42.67 ± 6.64
ICR mice [4]; oral 0.1 mg/kg
  Head-dip No.: 18.73 ± 6.56
  Rearing No.: 20.36 ± 9.54
ICR mice [4]; oral 0.5 mg/kg
  Rearing No.: 27.08 ± 13.64
  Total No. (head-dip and rearing): 41.00 ± 10.20
ICR mice [4]; oral 1.0 mg/kg
  Rearing No.: 23.50 ± 9.27
ICR mice [4]; oral 2.5 mg/kg
  Head-dip No.: 15.67 ± 4.00
  Rearing No.: 22.42 ± 4.06
  Total No. (head-dip and rearing): 38.08 ± 6.43
ICR mice [4]; oral 5.0 mg/kg
  Head-dip No.: 8.75 ± 5.56
